{"source": "patent US11267861B2", "about": "“Peptide-oligourea foldamer compounds and methods of their use” (UREKA SARL, priority 2016, dated 2022)", "key": {"[1]": {"tested_on": "chymotrypsin", "experiment": "Enzymatic degradation by chymotrypsin", "type": "in vitro ADME", "details": "compared to native peptide GLP-1 (SEQ ID NO: 1)", "procedure": "Enzymatic Degradation—Chymotrypsin and Trypsin. Stock solutions of the compounds were prepared at a concentration of 400 μM in a solution of 50 mM HEPES buffer, 50 mM NaCl, 0.05% Tween-80, pH 8.0. Stock solution of the chymotrypsin or trypsin was prepared at a concentration of 250 μg/mL in water. Stability of compounds to chymotrypsin was assessed by conducting a protease reaction in a 96-well plates at room temperature. Each well received 10 μL of HEPES buffer, 38 μL of the solution of compound to be assayed (final concentration 304 μmol/L), and 2 μL of the enzyme solution (final concentration 10 μg/mL) for a total volume of 50 μL. Each compound was also incubated in the absence of the enzyme (12 μL of HEPES buffer and 38 μL of the compound).\n(§1) At the indicated time (5, 10, 15, 30 and 60 minute(s)) a 10 μL aliquot was removed from each experimental reaction and pipet into 100 μL of 1% TFA solution to quench the reaction (t=0 minutes was determined using the reaction without enzyme). A portion of the quenched reaction solution was analyzed by HPLC. The time course of peptide degradation was determined by integrating the area of each peak in a series of HPLC traces. Another portion of the quenched reaction was analyzed by LC-MS for identification of each peptide fragment."}, "[2]": {"molecular_target": "T1, Carboxypeptidase A (EC 3.4.17.1) (Bos taurus, UniProt P00730)", "T1 construct": "from bovine pancreas (Fluka), milky suspension; purchased Fluka; host or cells: bovine pancreas", "T1 sequence (P00730 111-419)": "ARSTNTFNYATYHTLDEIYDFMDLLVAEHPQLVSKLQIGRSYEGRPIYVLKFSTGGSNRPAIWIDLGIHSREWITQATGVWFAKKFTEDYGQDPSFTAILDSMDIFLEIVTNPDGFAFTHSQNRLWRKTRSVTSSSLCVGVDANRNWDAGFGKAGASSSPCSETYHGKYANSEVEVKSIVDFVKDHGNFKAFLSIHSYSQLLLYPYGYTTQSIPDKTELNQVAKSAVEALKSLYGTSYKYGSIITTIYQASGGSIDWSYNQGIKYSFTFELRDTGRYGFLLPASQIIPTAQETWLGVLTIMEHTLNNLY", "experiment": "Enzymatic degradation by carboxypeptidase A", "type": "in vitro ADME, bovine", "details": "same results = more stable than the native peptides", "procedure": "Enzymatic Degradation—Carboxypeptidase A. Carboxypeptidase A (EC 3.4.17.1) from bovine pancreas (Fluka), milky suspension, stock solution in PBS buffer (pH 7.5, 0.01 M). For each degradation experiment, stock solutions of the peptidic substrate and the enzyme were made using phosphate-buffered saline (PBS) buffer solution. The enzyme concentrations of the stock solutions were selected such that the standard substrates were totally degraded after a maximum of 15 min (ratio 2[enzyme]:100[substrate]). PBS buffer solution (10 mM sodium phosphate, 0.14 M NaCl) was prepared as follows: Solution A (4.75 mL of 0.2 M NaH2PO4.H2O), solution B (20.25 mL of 0.2 M Na2HPO4.H2O), NaCl (4.5 g) and H2O (25 mL) were stirred for 15 min at room temperature and diluted tenfold with H2O. The pH was adjusted either with NaOH (1 M) or with HCl (1 M) prior to use. A solution of the substrate in PBS buffer (pH 7.5, 0.01 M) and a solution of the required amount of enzyme, were mixed and incubated at 25° C. for 4 hours. Degradation was stopped with concentrated AcOH, and buffer solution was added so that the total volume reached 150 μL.\nThe resulting mixture was analyzed by reversed-phase HPLC. A mixture of CH3CN/H2O (0.1% TFA) was used as eluent. Gradients were 10% CH3CN to 100% CH3CN in 10 minutes. The flow rate, for all separations, was 1 mL·min^−1."}, "[3]": {"molecular_target": "T2, mouse GLP-1 receptor (Mus musculus, UniProt O35659)", "T2 construct": "mouse GLP-1 receptor endogenously expressed in βTC6 cells; endogenous in cells; host or cells: βTC6 cells", "T2 sequence (O35659 22-463)": "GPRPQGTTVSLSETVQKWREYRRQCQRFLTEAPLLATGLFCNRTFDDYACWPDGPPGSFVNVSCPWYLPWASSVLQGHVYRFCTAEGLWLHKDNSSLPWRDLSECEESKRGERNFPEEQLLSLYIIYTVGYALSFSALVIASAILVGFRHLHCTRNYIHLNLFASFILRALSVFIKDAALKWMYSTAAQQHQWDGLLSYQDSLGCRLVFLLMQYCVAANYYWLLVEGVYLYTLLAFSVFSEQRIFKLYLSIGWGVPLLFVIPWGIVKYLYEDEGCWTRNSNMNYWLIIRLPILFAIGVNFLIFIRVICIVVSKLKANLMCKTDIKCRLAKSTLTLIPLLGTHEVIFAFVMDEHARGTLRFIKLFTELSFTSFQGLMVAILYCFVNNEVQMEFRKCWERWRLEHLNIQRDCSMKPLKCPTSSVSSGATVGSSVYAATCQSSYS", "experiment": "GLP-1 functional assay: agonist activity by cAMP production (HTRF) in βTC6 cells", "type": "cell-based", "procedure": "For stimulated control measurement, separate assay wells contain 10 nM GLP-1(7-37) were utilized.\nFollowing incubation, the cells were lysed and the fluorescence acceptor (D2-labeled cAMP) and fluorescence donor (anti-cAMP antibody labeled with europium cryptate) were added. […] The results are expressed as a percent of the control response to 10 nM GLP-1(7-37). The standard reference agonist is GLP-1(7-37), which was tested in each experiment at several concentrations to generate a concentration-response curve from which its EC50 value was calculated.\n(§2) HTRF (Homogeneous Time-Resolved Fluorescence) principle. The HTRF technology is based on time resolved fluorescence energy transfer (TR-FRET), which occurs between long-lived fluorophore Europium or Terbium Cryptates, and EuK or Tb respectively, as a donor and the allophycocyanin XL665, d2 or Red as acceptor. Many compounds and proteins present in biological fluids or serum are naturally fluorescent, and the use of conventional, prompt fluorescence leads to serious limitations in assay sensitivity. The use of long-lived fluorophore combined with time-resolved detection (a delay between excitation and emission detection) minimizes prompt fluorescence interference."}, "[4]": {"tested_on": "trypsin", "experiment": "Enzymatic degradation by trypsin", "type": "in vitro ADME", "details": "compared to native peptide GLP-1 (seq. 1)", "procedure": "Enzymatic Degradation—Chymotrypsin and Trypsin. Stock solutions of the compounds were prepared at a concentration of 400 μM in a solution of 50 mM HEPES buffer, 50 mM NaCl, 0.05% Tween-80, pH 8.0. […] Stability of compounds to chymotrypsin was assessed by conducting a protease reaction in a 96-well plates at room temperature. […] Each compound was also incubated in the absence of the enzyme (12 μL of HEPES buffer and 38 μL of the compound).\nas §1"}, "[5]": {"molecular_target": "T3, MDMX (Homo sapiens, UniProt O15151)", "T3 construct": "GI:88702790)", "T3 sequence (O15151 1-174)": "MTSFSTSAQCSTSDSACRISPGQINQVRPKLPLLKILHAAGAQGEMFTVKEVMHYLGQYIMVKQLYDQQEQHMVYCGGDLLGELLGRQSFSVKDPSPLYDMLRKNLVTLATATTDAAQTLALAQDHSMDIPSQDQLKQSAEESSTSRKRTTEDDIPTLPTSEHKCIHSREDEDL", "experiment": "MDMX/p53 interaction HTRF assay", "type": "biochemical", "procedure": "(§3) Functional Assay to Examine Bioactivity of MDM2 and MDMX Antagonists. The compounds were received dissolved in 100% DMSO at a final concentration of 10 mM and frozen. After complete defrosting and sonication, all compounds were diluted in 100% DMSO at both 0.4 mM, 0.04 and 0.004 mM, and distributed into two 96-well compounds daughter plates (Table 2).\n(§4) Each compound was evaluated in duplicate on both (MDM2 or MDMX)/p53 interaction and on a positive TR-FRET control protein in a 384-well reaction plate. […] The reference compound Nutlin-3 is integrated in the compound daughter plate and was used under the same conditions.\nas §2, with “interference. […]” for “interference.”"}, "[6]": {"molecular_target": "T4, MDM2 (Homo sapiens, UniProt Q00987)", "T4 construct": "GST-Flag-Mdm2 (AA1-188; GI:4505136)", "T4 sequence (Q00987 1-188)": "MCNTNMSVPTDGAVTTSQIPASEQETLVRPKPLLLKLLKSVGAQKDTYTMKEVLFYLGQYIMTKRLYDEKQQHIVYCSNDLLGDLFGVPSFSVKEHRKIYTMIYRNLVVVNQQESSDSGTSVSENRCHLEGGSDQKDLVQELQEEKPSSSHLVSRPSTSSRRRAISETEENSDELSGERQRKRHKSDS", "experiment": "MDM2/p53 interaction HTRF assay", "type": "biochemical", "procedure": "as §3, §4\nas §2, with “interference. […]” for “interference.”"}, "[7]": {"details": "in vivo; cited from earlier work"}}, "note": "pEC50: −log10 of the molar value. Read-outs that look alike come from different tables or passages of the source. Numbered stars: 1 amine (or outer) side, 2 acyl side, 3 side chain; on linkers, the order of the positions; unused ones are H or OH. Peptide text beside a SMILES is read from it. * marks the point of attachment. X10 = C[C@@H](CN*)NC(=O)[C@@H](N)Cc1c[nH]cn1; X2 = C[C@@H](O)[C@H](N)C(=O)N[C@@H](CO)CN*; X3 = O=C(O)[C@@H]1CCCN1C(=O)NC[C@H](CO)N*; X5 = C[C@@H](O)[C@H](N)CN*; CO = O=C([*:1])[*:2]"}
{"compound": "CC[C@H](C)[C@H](NC(=O)[C@H](Cc1ccccc1)NC(=O)[C@H](CCC(=O)O)NC(=O)[C@H](CCCCN)NC(=O)[C@H](C)NC(=O)[C@H](C)NC(=O)[C@H](CCC(N)=O)NC(=O)CNC(=O)[C@H](CCC(=O)O)NC(=O)[C@H](CC(C)C)NC(=O)[C@H](Cc1ccc(O)cc1)NC(=O)[C@H](CO)NC(=O)[C@H](CO)NC(=O)[C@@H](NC(=O)[C@H](CC(=O)O)NC(=O)[C@H](CO)NC(=O)[C@@H](NC(=O)[C@H](Cc1ccccc1)NC(=O)[C@@H](NC(=O)CNC(=O)[C@H](CCC(=O)O)NC(=O)[C@H](C)NC(=O)[C@@H](N)Cc1c[nH]cn1)[C@@H](C)O)[C@@H](C)O)C(C)C)C(=O)N[C@@H](C)C(=O)N[C@H](CNC(=O)N[C@@H](CC(C)C)C(=O)N[C@H](C(=O)N[C@@H](CCCCN)C(=O)NCC(=O)N[C@@H](CCCNC(=N)N)C(=O)NCC(=O)O)C(C)C)Cc1c[nH]c2ccccc12", "note": "[Compound 4]", "values": [{"measurement": "half-life in the chymotrypsin degradation test compared to native peptide", "setting": "[1]", "value": "longer half-life"}, {"measurement": "stability with carboxipeptidase A compared to native peptides", "setting": "[2]", "value": "same results"}, {"measurement": "pEC50", "setting": "[3]", "value": 9.59}]}
{"compound": "CC[C@H](C)[C@H](NC(=O)[C@H](Cc1ccccc1)NC(=O)NC[C@H](CCC(=O)O)NC(=O)[C@H](CCCCN)NC(=O)[C@H](C)NC(=O)[C@H](C)NC(=O)[C@H](CCC(N)=O)NC(=O)CNC(=O)[C@H](CCC(=O)O)NC(=O)[C@H](CC(C)C)NC(=O)[C@H](Cc1ccc(O)cc1)NC(=O)[C@H](CO)NC(=O)[C@H](CO)NC(=O)[C@@H](NC(=O)[C@H](CC(=O)O)NC(=O)[C@H](CO)NC(=O)[C@@H](NC(=O)[C@H](Cc1ccccc1)NC(=O)[C@@H](NC(=O)CNC(=O)[C@H](CCC(=O)O)NC(=O)[C@H](C)NC(=O)[C@@H](N)Cc1c[nH]cn1)[C@@H](C)O)[C@@H](C)O)C(C)C)C(=O)N[C@@H](C)C(=O)N[C@@H](Cc1c[nH]c2ccccc12)C(=O)N[C@@H](CC(C)C)C(=O)N[C@H](C(=O)N[C@@H](CCCCN)CNC(=O)NCC(=O)N[C@@H](CCCNC(=N)N)CNC(=O)NCC(=O)O)C(C)C", "note": "[Compound 11]", "values": [{"measurement": "half-life in the trypsin degradation test compared to native peptide", "setting": "[4]", "value": "longer half-life"}]}
{"compound": "CC(C)C[C@H](NC(=O)[C@H](C)NC(=O)[C@H](Cc1c[nH]c2ccccc12)NC(=O)[C@H](Cc1ccc(O)cc1)NC(=O)[C@H](CCC(=O)O)NC(=O)[C@H](C)NC(=O)[C@H](Cc1ccccc1)NC(=O)[C@H](CO)NC(=O)NC[C@@H](N)[C@@H](C)O)C(=O)N[C@@H](CC(C)C)C(=O)N[C@@H](CO)CNC(=O)N1CCC[C@H]1C(=O)O", "note": "[Compound 23] ({X5-CO}-SFAEYWALL-X3; N-terminus and C-terminus assumed)", "values": [{"measurement": "pEC50", "setting": "[5]", "value": 8.20}, {"measurement": "pEC50", "setting": "[6]", "value": 9.12}]}
{"compound": "CC(C)C[C@H](NC(=O)[C@H](C)NC(=O)[C@H](Cc1c[nH]c2ccccc12)NC(=O)[C@H](Cc1ccc(O)cc1)NC(=O)[C@H](CCC(=O)O)NC(=O)[C@H](C)NC(=O)[C@H](Cc1ccccc1)NC(=O)NC[C@H](CO)NC(=O)[C@@H](N)[C@@H](C)O)C(=O)N[C@@H](CC(C)C)C(=O)N[C@@H](CO)CNC(=O)N1CCC[C@H]1C(=O)O", "note": "[Compound 24] ({X2-CO}-FAEYWALL-X3)", "values": [{"measurement": "stability with carboxipeptidase A compared to native peptides", "setting": "[2]", "value": "same results"}]}
{"compound": "Albiglutide", "values": [{"measurement": "half-life", "setting": "[7]", "value": "four to seven"}]}
{"compound": "{X10-CO}-EGTFTSDLSKQLEEEAVRLFIEWLKNGGPSSGAPPSKKKKKK-NH2 [Compound 67]", "values": [{"measurement": "EC50", "setting": "[3]; read-out: EC50 (nM), GLP-1 Functional Assay", "value": 0.082, "unit": "nM"}]}
